Measured values: ChEMBL document CHEMBL1949629, “Discovery of a second generation agonist of the orphan G-protein coupled receptor GPR119 with an improved profile” (Bioorg Med Chem Lett, 2012)
Values after ≈ are worked out from the molar mass of the structure shown. Blank lines part the entries; values can stand above or below the compound they belong to. Active and inactive are the calls of the source. No cut-off for these calls is given here.

Experiments:
[1] = Solubility in 40% HPbetaCD after 24 hrs; format: physicochemical
[2] = Solubility in 20% HPbetaCD after 24 hrs; format: physicochemical
Cytochrome P450 2C9 = Cytochrome P450 2C9 (Homo sapiens, UniProt P11712); assay: Inhibition of CYP2C9; format: ADME
[3] = Solubility in water; format: physicochemical; conditions: buffer
[4] = Solubility in water at low pH; format: physicochemical; conditions: buffer
[5] = Solubility in water at pH 2; format: physicochemical
[6] = Solubility in water at pH 7; format: physicochemical; conditions: buffer
[7] = Permeability from apical to basolateral side of human Caco2 cells; format: ADME, cell-based; conditions: Caco-2, read-out: permeability
[8] = Permeability from basolateral to apical side of human Caco2 cells; format: ADME, cell-based; conditions: Caco-2, read-out: permeability
[9] = Half life in human liver microsomes; format: ADME, Microsome
[10] = Half life in rat liver microsomes; format: ADME, Microsome
Rattus norvegicus [11] = species: Rattus norvegicus; assay: Clearance in rat relative to hepatic blood flow; format: ADME, organism-based, Liver; conditions: in vivo
Canis familiaris [12] = species: Canis familiaris; assay: Clearance in dog relative to hepatic blood flow; format: ADME, organism-based, Canis lupus familiaris, Liver; conditions: in vivo
[13] = Elimination half life in rat; conditions: in vivo
[14] = Elimination half life in dog; conditions: in vivo
[15] = biological target: Voltage-gated inwardly rectifying potassium channel KCNH2 (Homo sapiens, UniProt Q12809); assay: Inhibition of human ERG
Cavia porcellus [16] = assay: Toxicity in guinea pig assessed as mean arterial blood pressure change at 5 mg/kg, iv; format: organism-based; design: dose 5 mg/kg, route intravenous; conditions: in vivo
Cavia porcellus [17] = assay: Toxicity in guinea pig assessed as change in heart rate at 5 mg/kg, iv; format: organism-based; design: dose 5 mg/kg, route intravenous; conditions: in vivo
Cavia porcellus [18] = assay: Toxicity in guinea pig assessed as change in ECG at 5 mg/kg, iv; format: organism-based; design: dose 5 mg/kg, route intravenous; conditions: in vivo
Rattus norvegicus [19] = assay: Toxicity in rat assessed as developmental abnormality dosed for 14 days; format: organism-based; conditions: in vivo, 336 h
Canis familiaris [20] = assay: Toxicity in dog assessed as developmental abnormality dosed for 7 days; format: organism-based, Canis lupus familiaris; conditions: in vivo, 168 h
[21] = Clearance in iv dosed Sprague-Dawley rat; format: ADME, organism-based; conditions: in vivo
[22] = Clearance in iv dosed Beagle dog; format: ADME, organism-based, Canis lupus familiaris; conditions: in vivo
[23] = Clearance in iv dosed Cynomolgus monkey; format: ADME, organism-based, Macaca fascicularis; conditions: in vivo
Rattus norvegicus [24] = assay: Drug metabolism in po dosed rat assessed as 5-methoxy-6-(2-methyl-6-(methylsulfonyl)pyridin-3-ylamino)pyrimidin-4-ol formation; format: ADME, organism-based; conditions: in vivo
Rattus norvegicus [25] = assay: Drug metabolism in po dosed rat assessed as 5-methoxy-N-(2-methyl-6-(methylsulfonyl)pyridin-3-yl)-6-(piperidin-4-yloxy)pyrimidin-4-amine formation; format: ADME, organism-based; conditions: in vivo
Rattus norvegicus [26] = assay: Drug metabolism in po dosed rat assessed as isopropyl 2-hydroxy-4-(5-methoxy-6-(2-methyl-6-(methylsulfonyl)pyridin-3-ylamino)pyrimidin-4-yloxy)piperidine-1-carboxylate formation; format: ADME, organism-based; conditions: in vivo
Mus musculus [27] = assay: Antidiabetic activity in fasted C57bl/6j mouse assessed as reduction in AUC of glucose at 1 mg/kg, po administered 30 mins prior glucose challenge by oral glucose tolerance test; format: functional, organism-based; design: dose 1 mg/kg
Mus musculus [28] = assay: Antidiabetic activity in fasted C57bl/6j mouse assessed as reduction in AUC of glucose at 10 mg/kg, po administered 30 mins prior glucose challenge by oral glucose tolerance test; format: functional, organism-based; design: dose 10 mg/kg
Rattus norvegicus [29] = assay: Antidiabetic activity in fasted Sprague-Dawley rat assessed as reduction in AUC of glucose at 3 mg/kg, po administered 30 mins prior glucose challenge by oral glucose tolerance test; format: functional, organism-based; design: dose 3 mg/kg
Rattus norvegicus [30] = assay: Antidiabetic activity in fasted Sprague-Dawley rat assessed as reduction in AUC of glucose at 30 mg/kg, po administered 30 mins prior glucose challenge by oral glucose tolerance test; format: functional, organism-based; design: dose 30 mg/kg
[31] = Tmax in C57Bl mouse at 10 mg/kg, po; format: ADME, organism-based; design: dose 10 mg/kg, route oral; conditions: in vivo
[32] = Tmax in Sprague-Dawley rat at 10 mg/kg, po; format: ADME, organism-based; design: dose 10 mg/kg, route oral; conditions: in vivo
[33] = Tmax in Beagle dog at 7.85 mg/kg, po; format: ADME, organism-based, Canis lupus familiaris; design: dose 7.85 mg/kg, route oral; conditions: in vivo
[34] = Tmax in cynomolgus monkey at 10 mg/kg, po; format: ADME, organism-based, Macaca fascicularis; design: dose 10 mg/kg, route oral; conditions: in vivo
[35] = Cmax in C57Bl mouse at 10 mg/kg, po; format: ADME, organism-based; design: dose 10 mg/kg, route oral; conditions: in vivo
[36] = Cmax in Sprague-Dawley rat at 10 mg/kg, po; format: ADME, organism-based; design: dose 10 mg/kg, route oral; conditions: in vivo
[37] = Cmax in Beagle dog at 7.85 mg/kg, po; format: ADME, organism-based, Canis lupus familiaris; design: dose 7.85 mg/kg, route oral; conditions: in vivo
[38] = Cmax in cynomolgus monkey at 10 mg/kg, po; format: ADME, organism-based, Macaca fascicularis; design: dose 10 mg/kg, route oral; conditions: in vivo
[39] = AUC (0 to infinity) in C57Bl mouse at 10 mg/kg, po; format: ADME, organism-based; design: time infinity, dose 10 mg/kg, route oral; conditions: plasma
[40] = AUC (0 to infinity) in Sprague-Dawley rat at 10 mg/kg, po; format: ADME, organism-based; design: time infinity, dose 10 mg/kg, route oral; conditions: plasma
[41] = AUC (0 to infinity) in Beagle dog at 7.85 mg/kg, po; format: ADME, organism-based, Canis lupus familiaris; design: time infinity, dose 7.85 mg/kg, route oral; conditions: plasma
[42] = AUC (0 to infinity) in cynomolgus monkey at 10 mg/kg, po; format: ADME, organism-based, Macaca fascicularis; design: time infinity, dose 10 mg/kg, route oral; conditions: plasma
[43] = Half life in C57Bl mouse at 10 mg/kg, po; conditions: in vivo
[44] = Half life in Sprague-Dawley rat at 10 mg/kg, po; conditions: in vivo
[45] = Half life in cynomolgus monkey at 10 mg/kg, po; conditions: in vivo
[46] = Mean residence time in C57Bl mouse at 10 mg/kg, po; format: ADME, organism-based; design: dose 10 mg/kg, route oral; conditions: in vivo
[47] = Mean residence time in Sprague-Dawley rat at 10 mg/kg, po; format: ADME, organism-based; design: dose 10 mg/kg, route oral; conditions: in vivo
[48] = Mean residence time in Beagle dog at 7.85 mg/kg, po; format: ADME, organism-based, Canis lupus familiaris; design: dose 7.85 mg/kg, route oral; conditions: in vivo
[49] = Mean residence time in cynomolgus monkey at 10 mg/kg, po; format: ADME, organism-based, Macaca fascicularis; design: dose 10 mg/kg, route oral; conditions: in vivo
Mus musculus [50] = assay: Antidiabetic activity in ob/ob mouse assessed as blood glucose AUC at 3 mg/kg administered 60 mins prior glucose challenge by oral glucose tolerance test relative to vehicle treated control; format: functional
Rattus norvegicus [51] = assay: Antidiabetic activity in Sprague-Dawley rat assessed as blood glucose AUC at 3 mg/kg administered 60 mins prior glucose challenge by oral glucose tolerance test relative to vehicle treated control; format: functional
Rattus norvegicus [52] = assay: Antidiabetic activity in ZDF rat assessed as blood glucose AUC at 3 mg/kg administered 60 mins prior glucose challenge by oral glucose tolerance test relative to vehicle treated control; format: functional
Cynomolgus monkey [53] = assay: Antidiabetic activity in cynomolgus monkey assessed as blood glucose AUC at 3 mg/kg administered 60 mins prior glucose challenge by oral glucose tolerance test relative to vehicle treated control; format: functional, Macaca fascicularis
Rattus norvegicus [54] = assay: Drug concentration in Sprague-Dawley rat measured at initiation of the oral glucose tolerance test at 3 mg/kg; format: ADME, organism-based; design: dose 3 mg/kg, route oral; conditions: in vivo
Rattus norvegicus [55] = assay: Drug concentration in ZDF rat measured at initiation of the oral glucose tolerance test at 3 mg/kg; format: ADME, organism-based; design: dose 3 mg/kg, route oral; conditions: in vivo
Cynomolgus monkey [56] = assay: Drug concentration in cynomolgus monkey measured at initiation of the oral glucose tolerance test at 3 mg/kg; format: ADME, organism-based, Macaca fascicularis; design: dose 3 mg/kg, route oral; conditions: in vivo
in vivo = conditions: beagle, dog, po, 7.85 mg/kg
Description: Half life in Beagle dog at 7.85 mg/kg, po

[57] = Clearance in iv dosed Swiss albino mouse; format: ADME, organism-based; conditions: in vivo
[58] = Clearance in iv dosed Zucker fa/fa rat; format: ADME, organism-based; conditions: in vivo

Cytochrome P450 2C9, sequence (P11712 whole entry): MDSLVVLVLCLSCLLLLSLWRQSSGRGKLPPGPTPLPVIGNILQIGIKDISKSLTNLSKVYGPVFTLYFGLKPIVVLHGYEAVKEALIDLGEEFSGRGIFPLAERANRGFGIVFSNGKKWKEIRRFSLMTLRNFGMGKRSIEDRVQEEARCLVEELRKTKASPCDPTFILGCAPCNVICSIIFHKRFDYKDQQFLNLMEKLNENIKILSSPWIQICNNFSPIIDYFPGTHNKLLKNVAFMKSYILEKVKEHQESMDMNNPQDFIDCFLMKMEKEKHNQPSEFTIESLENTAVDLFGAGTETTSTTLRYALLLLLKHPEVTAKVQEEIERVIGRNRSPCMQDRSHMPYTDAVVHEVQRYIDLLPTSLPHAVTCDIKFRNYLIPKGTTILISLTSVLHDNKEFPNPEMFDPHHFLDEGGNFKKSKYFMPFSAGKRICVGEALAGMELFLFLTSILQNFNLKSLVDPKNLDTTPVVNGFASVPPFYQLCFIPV
Voltage-gated inwardly rectifying potassium channel KCNH2, sequence (Q12809 whole entry): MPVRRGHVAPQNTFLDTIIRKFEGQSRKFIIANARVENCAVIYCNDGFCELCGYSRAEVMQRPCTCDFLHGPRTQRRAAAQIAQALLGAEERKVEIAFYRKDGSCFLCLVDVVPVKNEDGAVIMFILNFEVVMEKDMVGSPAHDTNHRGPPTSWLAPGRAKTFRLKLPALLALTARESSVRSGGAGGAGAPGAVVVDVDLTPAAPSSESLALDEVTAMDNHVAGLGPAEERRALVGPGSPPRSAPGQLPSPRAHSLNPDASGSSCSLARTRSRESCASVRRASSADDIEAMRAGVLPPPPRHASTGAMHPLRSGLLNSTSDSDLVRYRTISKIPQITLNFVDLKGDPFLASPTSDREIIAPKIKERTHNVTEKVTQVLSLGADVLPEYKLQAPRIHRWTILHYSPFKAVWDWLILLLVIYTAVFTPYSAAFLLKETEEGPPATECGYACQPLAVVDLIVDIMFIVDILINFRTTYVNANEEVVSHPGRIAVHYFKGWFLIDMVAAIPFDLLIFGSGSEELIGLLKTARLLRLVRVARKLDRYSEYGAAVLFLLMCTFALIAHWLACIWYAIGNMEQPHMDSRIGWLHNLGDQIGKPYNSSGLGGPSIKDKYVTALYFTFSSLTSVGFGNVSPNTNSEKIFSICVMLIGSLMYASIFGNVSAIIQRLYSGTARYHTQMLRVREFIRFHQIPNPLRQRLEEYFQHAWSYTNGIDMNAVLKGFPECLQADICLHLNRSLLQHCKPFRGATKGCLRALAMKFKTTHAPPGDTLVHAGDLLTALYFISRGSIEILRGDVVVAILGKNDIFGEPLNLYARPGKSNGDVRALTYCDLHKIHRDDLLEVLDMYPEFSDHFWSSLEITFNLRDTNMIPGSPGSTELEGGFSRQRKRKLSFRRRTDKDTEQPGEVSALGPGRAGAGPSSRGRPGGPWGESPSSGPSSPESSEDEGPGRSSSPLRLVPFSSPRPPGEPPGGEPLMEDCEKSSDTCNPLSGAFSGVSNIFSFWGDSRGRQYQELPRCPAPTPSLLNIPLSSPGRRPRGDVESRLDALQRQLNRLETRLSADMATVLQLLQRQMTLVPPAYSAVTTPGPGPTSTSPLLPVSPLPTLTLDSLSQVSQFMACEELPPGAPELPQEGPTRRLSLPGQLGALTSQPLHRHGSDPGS

solubility at 24 h [1]: 7.7 mg/mL (≈ 20 mM)
Compound: Cc1ncccc1Nc1ncnc(OC2CCN(C(=O)OC(C)C)CC2)c1C

solubility at 24 h [2]: 21.3 mg/mL (≈ 47.4 mM)
Compound: Cc1c(Nc2ccc(S(C)(=O)=O)nc2)ncnc1OC1CCN(C(=O)OC(C)C)CC1

solubility at 24 h [1]: 15.9 mg/mL (≈ 41.1 mM)
solubility at 24 h [2]: 15.9 mg/mL (≈ 41.1 mM)
Compound: Cc1ncccc1Oc1ncnc(OC2CCN(C(=O)OC(C)C)CC2)c1C

IC50 (Cytochrome P450 2C9): 2.5 µM
solubility at 24 h [2]: 24 mg/mL (≈ 51.8 mM)
solubility [3]: Insoluble
solubility [4]: soluble
Compound: Cc1nc(S(C)(=O)=O)ccc1Nc1ncnc(OC2CCN(C(=O)OC(C)C)CC2)c1C

solubility at 24 h [2]: 20.4 mg/mL (≈ 44 mM)
Compound: Cc1cc(S(C)(=O)=O)ncc1Nc1ncnc(OC2CCN(C(=O)OC(C)C)CC2)c1C

Further lines, the compound ahead of its results:

Compound: Cc1nc(S(C)(=O)=O)ccc1Nc1ncnc(OC2CCN(C(=O)OC(C)C)CC2)c1C#N
solubility at 24 h [2]: 17 mg/mL (≈ 35.8 mM)

Compound: Cc1nc(S(C)(=O)=O)ccc1Oc1ncnc(OC2CCN(C(=O)OC(C)C)CC2)c1C
solubility at 24 h [2]: 6.7 mg/mL (≈ 14.4 mM)

Compound: COc1c(Nc2ccc(S(C)(=O)=O)nc2C)ncnc1OC1CCN(C(=O)OC(C)C)CC1 [ADP-597]
solubility [5]: 0.31 mg/mL (≈ 0.646 mM)
solubility [6]: 0.11 mg/mL (≈ 0.229 mM)
Papp A→B [7]: 260 nm/s
Papp B→A [8]: 150 nm/s
half-life [9]: > 1 h
half-life [10]: > 1 h
CL (Rattus norvegicus [11]): 16%
CL (Canis familiaris [12]): 16%
half-life [13]: 3 h
half-life [14]: 7 h
IC50 [15]: > 10 µM
Activity (Cavia porcellus [16]): Non-toxic
Activity (Cavia porcellus [17]): Non-toxic
Activity (Cavia porcellus [18]): Non-toxic
Activity (Rattus norvegicus [19]): Non-toxic
Activity (Canis familiaris [20]): Non-toxic
clearance [21]: 0.58 L/h/kg
clearance [22]: 0.04 L/h/kg
clearance [23]: 0.11 L/h/kg
Drug metabolism (Rattus norvegicus [24]): Active
Drug metabolism (Rattus norvegicus [25]): Active
Drug metabolism (Rattus norvegicus [26]): Active
IC50 (Cytochrome P450 2C9): 8 µM
solubility at 24 h [2]: 33 mg/mL (≈ 68.8 mM)
Activity (Mus musculus [27]): Active
Activity (Mus musculus [28]): Active
Activity (Rattus norvegicus [29]): Active
Activity (Rattus norvegicus [30]): Active
Tmax [31]: 2 h
Tmax [32]: 1 h
Tmax [33]: 8 h
Tmax [34]: 6 h
Cmax [35]: 25.8 µg/mL
Cmax [36]: 1.39 µg/mL
Cmax [37]: 1.98 µg/mL
Cmax [38]: 4.8 µg/mL
AUC(0-inf) [39]: 320 µg·h/mL
AUC(0-inf) [40]: 12.5 µg·h/mL
AUC(0-inf) [41]: 43.7 µg·h/mL
AUC(0-inf) [42]: 64.2 µg·h/mL
half-life [43]: 5.9 h
half-life [44]: 4.3 h
half-life [45]: 4.4 h
MRT [46]: 7.9 h
MRT [47]: 6.8 h
MRT [48]: 10.9 h
MRT [49]: 8.4 h
Activity (Mus musculus [50]): 78.4%
Activity (Rattus norvegicus [51]): 85.1%
Activity (Rattus norvegicus [52]): 72.8%
Activity (Cynomolgus monkey [53]): 82.8%
Drug uptake (Rattus norvegicus [54]): 482 ng/mL
Drug uptake (Rattus norvegicus [55]): 1592 ng/mL
Drug uptake (Cynomolgus monkey [56]): 112 ng/mL
half-life (in vivo): 10.9 h

Compound: Cc1cc(S(C)(=O)=O)ncc1Oc1ncnc(OC2CCN(C(=O)OC(C)C)CC2)c1C
solubility at 24 h [2]: 13.1 mg/mL (≈ 28.2 mM)

Compound: CCc1c(Nc2ccc(S(C)(=O)=O)nc2C)ncnc1OC1CCN(C(=O)OC(C)C)CC1
solubility at 24 h [2]: 24.5 mg/mL (≈ 51.3 mM)

Compound: CC(C)OC(=O)N1CCC(Oc2ncnc3c2cnn3-c2ccc(S(C)(=O)=O)cc2F)CC1
clearance [57]: 0.23 L/h/kg
clearance [21]: 1.2 L/h/kg
clearance [58]: 0.44 L/h/kg
clearance [22]: 0.12 L/h/kg
clearance [23]: 0.11 L/h/kg
